Converted amounts (≈) assume the structure as drawn.
Assays:
[1] = molecular target: T1, Chromatin remodeling regulator CECR2 (Homo sapiens, UniProt Q9BXF3); assay: Binding affinity to CECR2 (unknown origin) by ITC analysis
[2] = molecular target: Bromodomain-containing protein 4 (Homo sapiens, UniProt O60885, Y390A); assay: Displacement of Alexa Fluor 647-labeled ligand from BRD4 BD1 Y390A mutant (1 to 477 residue) (unknown origin) measured after 30 mins by TR-FRET assay
[3] = molecular target: T1, Chromatin remodeling regulator CECR2; assay: Displacement of Alexa Fluor 647-labeled GSK tracer from FLAG-6His-Tev-fused CECR2 (424 to 543 residue) (unknown origin) measured after 15 mins by TR-FRET assay
[4] = molecular target: T2, ATPase family AAA domain-containing protein 2 (Homo sapiens, UniProt Q6PL18); assay: Displacement of Alexa Fluor 488-labeled ligand from FLAG-6His-Tev-fused ATAD2 (981 to 1121 residue) (unknown origin) measured after 30 mins by TR-FRET assay
T2 sequence (Q6PL18 whole entry): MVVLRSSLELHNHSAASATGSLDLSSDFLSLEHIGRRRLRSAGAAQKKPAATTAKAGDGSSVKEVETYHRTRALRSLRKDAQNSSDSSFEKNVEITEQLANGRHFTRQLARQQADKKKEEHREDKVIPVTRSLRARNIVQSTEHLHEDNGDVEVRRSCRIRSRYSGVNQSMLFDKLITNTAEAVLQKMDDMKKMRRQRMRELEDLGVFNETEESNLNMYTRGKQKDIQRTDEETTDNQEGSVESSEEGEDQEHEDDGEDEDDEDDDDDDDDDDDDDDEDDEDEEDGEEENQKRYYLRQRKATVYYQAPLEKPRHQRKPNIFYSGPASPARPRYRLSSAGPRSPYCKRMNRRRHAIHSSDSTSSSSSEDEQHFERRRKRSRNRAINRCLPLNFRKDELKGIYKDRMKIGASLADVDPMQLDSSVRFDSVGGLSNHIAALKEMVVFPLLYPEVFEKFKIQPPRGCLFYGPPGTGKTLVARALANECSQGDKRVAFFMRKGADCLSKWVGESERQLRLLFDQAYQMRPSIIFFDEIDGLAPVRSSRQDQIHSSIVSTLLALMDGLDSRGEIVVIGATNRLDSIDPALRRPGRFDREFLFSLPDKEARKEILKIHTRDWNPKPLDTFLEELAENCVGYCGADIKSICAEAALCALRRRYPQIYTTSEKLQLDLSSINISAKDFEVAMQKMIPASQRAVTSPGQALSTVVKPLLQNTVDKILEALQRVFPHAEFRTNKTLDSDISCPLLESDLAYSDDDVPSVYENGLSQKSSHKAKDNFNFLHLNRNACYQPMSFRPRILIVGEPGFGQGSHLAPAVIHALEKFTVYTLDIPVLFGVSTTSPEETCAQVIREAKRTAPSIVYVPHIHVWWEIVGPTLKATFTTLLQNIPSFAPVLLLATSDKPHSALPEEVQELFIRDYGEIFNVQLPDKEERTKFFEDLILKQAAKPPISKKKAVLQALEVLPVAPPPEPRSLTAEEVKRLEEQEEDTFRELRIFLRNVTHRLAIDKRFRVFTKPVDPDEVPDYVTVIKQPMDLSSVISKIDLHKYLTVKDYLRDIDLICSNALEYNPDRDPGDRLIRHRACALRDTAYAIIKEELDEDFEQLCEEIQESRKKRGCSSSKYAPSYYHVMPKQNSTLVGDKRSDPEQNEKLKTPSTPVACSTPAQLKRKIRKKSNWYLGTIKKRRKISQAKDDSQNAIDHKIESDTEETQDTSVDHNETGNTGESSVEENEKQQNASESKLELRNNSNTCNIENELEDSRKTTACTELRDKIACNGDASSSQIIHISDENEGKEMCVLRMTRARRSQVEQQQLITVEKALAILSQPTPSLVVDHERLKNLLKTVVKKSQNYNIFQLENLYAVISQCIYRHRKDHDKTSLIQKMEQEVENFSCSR

[5] = Lipophilicity, log D of the compound at pH 7.4 by chromatographic method; type: physicochemical; conditions: buffer
[6] = Solubility of the compound by CAD method; type: physicochemical
Homo sapiens = species on record: Homo sapiens; assay: Selectivity ratio of IC50 for displacement of Alexa Fluor 488-labeled ligand from FLAG-6His-Tev-fused ATAD2 (981 to 1121 residue) (unknown origin) to IC50 for displacement of Alexa Fluor 647-labeled GSK tracer from FLAG-6His-Tev-fused CECR2 (424 to 543 residue) (unknown origin)
[7] = Permeability of the compound by artificial lipid membrane-based method; type: ADME; conditions: not told; read-out: permeability
[8] = molecular target: Bromodomain-containing protein 4 (Homo sapiens, UniProt O60885); assay: Displacement of Alexa Fluor 647-labeled ligand from BRD4 BD2 (unknown origin) measured after 30 mins by TR-FRET assay
[9] = molecular target: T1, Chromatin remodeling regulator CECR2; assay: Binding affinity to human partial length CECR2 (P423 to D543 residues) expressed in bacterial expression system by BROMOscan assay
[10] = molecular target: Histone acetyltransferase KAT2A (Homo sapiens, UniProt Q92830); assay: Binding affinity to human partial length GCN5L2 (E726 to K837 residues) expressed in bacterial expression system by BROMOscan assay
Chain of Histone acetyltransferase KAT2A (Q92830 whole entry, the tested form may be a part): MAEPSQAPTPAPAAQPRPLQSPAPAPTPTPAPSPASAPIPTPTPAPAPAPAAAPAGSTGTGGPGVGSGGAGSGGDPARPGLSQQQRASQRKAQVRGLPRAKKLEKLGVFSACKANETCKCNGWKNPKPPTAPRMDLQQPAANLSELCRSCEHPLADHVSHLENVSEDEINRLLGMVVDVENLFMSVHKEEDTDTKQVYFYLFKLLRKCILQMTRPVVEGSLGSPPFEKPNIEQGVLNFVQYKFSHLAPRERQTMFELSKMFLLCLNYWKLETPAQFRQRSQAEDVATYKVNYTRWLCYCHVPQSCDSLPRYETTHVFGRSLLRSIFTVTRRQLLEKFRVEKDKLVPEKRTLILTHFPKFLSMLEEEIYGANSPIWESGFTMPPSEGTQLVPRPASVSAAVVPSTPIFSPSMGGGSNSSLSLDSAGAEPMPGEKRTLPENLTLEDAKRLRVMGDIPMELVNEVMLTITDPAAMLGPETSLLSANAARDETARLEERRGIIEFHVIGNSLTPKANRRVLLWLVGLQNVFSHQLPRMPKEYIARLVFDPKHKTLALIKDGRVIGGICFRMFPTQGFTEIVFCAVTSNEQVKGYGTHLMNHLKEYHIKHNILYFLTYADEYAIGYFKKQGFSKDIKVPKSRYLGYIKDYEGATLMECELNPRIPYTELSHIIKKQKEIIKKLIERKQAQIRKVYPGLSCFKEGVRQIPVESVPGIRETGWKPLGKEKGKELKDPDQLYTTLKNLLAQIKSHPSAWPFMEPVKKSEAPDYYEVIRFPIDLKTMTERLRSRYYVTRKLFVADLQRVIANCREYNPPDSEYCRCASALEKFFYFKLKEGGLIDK

[11] = molecular target: T1, Chromatin remodeling regulator CECR2; assay: Inhibition of BSP-BODIPY binding to Nanoluc-tagged CECR2 (unknown origin) expressed in HEK293 cells measured after 4 to 6 hrs by NanoBRET assay; type: cell-based

T1 sequence (Q9BXF3 whole entry): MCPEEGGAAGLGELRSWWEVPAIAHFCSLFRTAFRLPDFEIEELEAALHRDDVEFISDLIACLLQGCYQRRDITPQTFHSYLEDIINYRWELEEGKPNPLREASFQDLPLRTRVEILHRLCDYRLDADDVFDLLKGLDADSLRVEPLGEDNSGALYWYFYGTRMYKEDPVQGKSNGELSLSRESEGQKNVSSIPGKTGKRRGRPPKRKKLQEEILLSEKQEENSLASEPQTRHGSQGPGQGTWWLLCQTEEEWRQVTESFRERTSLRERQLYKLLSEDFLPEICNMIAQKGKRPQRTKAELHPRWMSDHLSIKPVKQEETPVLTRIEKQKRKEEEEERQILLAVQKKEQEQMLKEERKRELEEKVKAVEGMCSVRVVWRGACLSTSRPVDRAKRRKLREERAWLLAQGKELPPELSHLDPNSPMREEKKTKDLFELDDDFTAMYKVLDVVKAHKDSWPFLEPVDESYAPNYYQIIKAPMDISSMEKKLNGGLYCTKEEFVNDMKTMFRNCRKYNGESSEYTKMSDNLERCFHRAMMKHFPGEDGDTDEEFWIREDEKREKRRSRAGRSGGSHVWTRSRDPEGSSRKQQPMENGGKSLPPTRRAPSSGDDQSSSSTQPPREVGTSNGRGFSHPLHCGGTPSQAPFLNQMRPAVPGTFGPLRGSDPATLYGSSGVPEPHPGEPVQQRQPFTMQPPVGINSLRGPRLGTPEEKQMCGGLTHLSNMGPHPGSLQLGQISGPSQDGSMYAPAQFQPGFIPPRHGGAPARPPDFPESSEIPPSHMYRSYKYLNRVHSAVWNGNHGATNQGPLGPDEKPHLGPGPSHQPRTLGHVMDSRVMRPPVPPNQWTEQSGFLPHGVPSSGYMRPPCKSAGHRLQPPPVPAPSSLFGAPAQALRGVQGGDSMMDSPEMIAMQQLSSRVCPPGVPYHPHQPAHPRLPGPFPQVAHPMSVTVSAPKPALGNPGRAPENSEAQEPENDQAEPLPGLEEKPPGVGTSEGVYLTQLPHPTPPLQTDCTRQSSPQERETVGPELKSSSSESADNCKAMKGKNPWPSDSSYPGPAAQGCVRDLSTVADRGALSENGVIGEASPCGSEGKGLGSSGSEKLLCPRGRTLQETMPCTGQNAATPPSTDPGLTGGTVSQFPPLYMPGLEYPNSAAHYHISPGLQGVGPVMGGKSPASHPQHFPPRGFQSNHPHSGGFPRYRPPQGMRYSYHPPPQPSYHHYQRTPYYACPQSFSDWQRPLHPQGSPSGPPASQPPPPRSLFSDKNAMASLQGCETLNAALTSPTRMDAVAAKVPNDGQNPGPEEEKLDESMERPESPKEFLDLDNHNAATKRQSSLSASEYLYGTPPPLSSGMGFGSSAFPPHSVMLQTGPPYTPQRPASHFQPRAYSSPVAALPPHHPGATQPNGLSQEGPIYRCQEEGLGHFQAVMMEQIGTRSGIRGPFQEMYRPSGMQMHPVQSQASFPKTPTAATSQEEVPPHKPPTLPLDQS

| Compound | Kd [1] [nM] | IC50 [2] [nM] | IC50 [3] [nM] | IC50 [4] [nM] | chromatographic logD [5] | solubility [6] [µg/mL] | Ratio IC50 (Homo sapiens) | Papp [7] [×10⁻⁶ cm/s] | IC50 [8] [nM] | Kd [9] [nM] | Kd [10] [nM] | IC50 [11] [nM] |
| --- | --- | --- | --- | --- | --- | --- | --- | --- | --- | --- | --- | --- |
| CN(C)CCCOc1ccc(-c2cc(NCCCn3cccn3)nc(S(C)(=O)=O)n2)cc1 | 10 | – | – | – | – | – | – | – | – | – | – | – |
| C[C@H]1CCN(S(=O)(=O)c2cc(NC(=O)Cn3nnc4c3CCN(CC(F)(F)F)C4)ccc2Br)C1 | – | 31600 | 158 | 2510 | 5.3 | 49 (≈ 86.7 µM) | 16 | – | – | – | – | – |
| CN1CCc2c(nnn2CC(=O)Nc2ccc(Br)c(S(=O)(=O)N3CC[C@H](C4CC4)C3)c2)C1 | – | 12600 | – | 2000 | – | – | – | 14 | 5010 | 10 | 158 | 39.8 |
| O=C(CN1CCCC1=O)Nc1ccc(Cl)c(S(=O)(=O)N2CCCC2)c1 | – | > 50100 | 20000 | 50100 | – | – | – | 12 | – | – | – | – |
| CN1CCc2c(nnn2CC(=O)Nc2ccc(Cl)c(S(=O)(=O)N3CC[C@H](C4CC4)C3)c2)C1 | – | 25100 | 20 | 3160 | – | – | – | 11.1 | 10000 | 7.94 | 501 | 50.1 |

Source: ChEMBL document CHEMBL4354881, “Optimization of Potent ATAD2 and CECR2 Bromodomain Inhibitors with an Atypical Binding Mode” (J Med Chem, 2020)
